From patent publication US9096591B2, “Tetracyclic compounds” (Medivation Technologies, Inc., priority 2007, dated 2015) come the findings set out here.

Each structure is given as a SMILES string.

Assay [1] concerns the target T1, human recombinant adrenergic α2A receptor (Homo sapiens, UniProt P08913).
T1 construct: expressed in transfected cells; host or cells: insect Sf9 cells
T1 sequence (P08913 1-465): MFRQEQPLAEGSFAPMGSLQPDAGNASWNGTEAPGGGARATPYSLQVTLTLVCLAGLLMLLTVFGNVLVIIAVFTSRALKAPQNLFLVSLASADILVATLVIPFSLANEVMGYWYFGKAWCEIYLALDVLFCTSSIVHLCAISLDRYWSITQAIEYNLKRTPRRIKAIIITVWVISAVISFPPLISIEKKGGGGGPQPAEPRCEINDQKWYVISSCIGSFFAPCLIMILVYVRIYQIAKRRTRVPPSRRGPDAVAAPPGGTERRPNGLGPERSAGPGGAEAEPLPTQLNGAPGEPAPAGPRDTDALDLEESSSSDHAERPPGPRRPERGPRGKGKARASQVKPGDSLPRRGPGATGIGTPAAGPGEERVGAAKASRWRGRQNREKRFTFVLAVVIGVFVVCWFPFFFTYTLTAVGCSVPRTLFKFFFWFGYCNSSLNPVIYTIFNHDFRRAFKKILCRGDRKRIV
The assay can be described thus: Adrenergic α2A radioligand binding ([3H]MK-912). More on the design: Inhibition of ligand binding, Adren. alpha2A: concentration or dose not given beside the values. Particulars: percent inhibition of specific binding. The method, boiled down: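 Membranes from Sf9 cells expressing the receptor were incubated with 1 nM [3H]MK-912 for 60 minutes at 25° C in 50 mM Tris-HCl pH 7.4, 12.5 mM MgCl2, 2 mM EDTA. 10 μM WB-4101 defined non-specific binding. Values are percent inhibition of specific bound radioactivity after filtration.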

Assay [2] addresses T2, human recombinant adrenergic α2B receptor (Homo sapiens, UniProt P18089).
T2 construct: expressed in transfected cells; host or cells: CHO-K1 cells
T2 sequence (P18089 1-450): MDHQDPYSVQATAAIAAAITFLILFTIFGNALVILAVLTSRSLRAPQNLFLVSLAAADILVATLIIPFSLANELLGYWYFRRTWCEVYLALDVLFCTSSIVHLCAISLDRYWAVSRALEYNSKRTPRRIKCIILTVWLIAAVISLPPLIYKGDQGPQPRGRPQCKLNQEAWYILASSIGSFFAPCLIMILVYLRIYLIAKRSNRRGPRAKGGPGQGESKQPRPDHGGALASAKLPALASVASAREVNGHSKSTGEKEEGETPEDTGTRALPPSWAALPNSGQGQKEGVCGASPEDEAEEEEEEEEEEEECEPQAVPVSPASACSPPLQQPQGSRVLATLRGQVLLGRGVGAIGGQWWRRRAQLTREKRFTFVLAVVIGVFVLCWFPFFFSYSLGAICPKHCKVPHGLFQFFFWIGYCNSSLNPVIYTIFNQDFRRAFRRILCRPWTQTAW
The assay can be described thus: Adrenergic α2B radioligand binding ([3H]Rauwolscine). More on the design: Inhibition of ligand binding, Adren. alpha2B: concentration or dose not given beside the values. As to conditions: percent inhibition of specific binding. The method, boiled down:
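Incubation ran 60 minutes at 25 °C in modified Tris-HCl buffer (50 mM, pH 7.4, 12.5 mM MgCl2, 1 mM EDTA, 0.2% BSA) using CHO-K1-expressed human receptor.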

Assay [3] concerns the target T3, human recombinant serotonin (5-Hydroxytryptamine) 5-HT2A receptor (Homo sapiens, UniProt P28223).
T3 construct: expressed in transfected cells; host or cells: CHO-K1 cells
Put plainly: Serotonin 5-HT2A radioligand binding ([3H]Ketanserin). Particulars: percent inhibition of specific binding. More on the design: Inhibition of ligand binding, Ser. 5-HT2A: concentration or dose not given beside the values. The protocol: Compounds of the invention were incubated with 0.5 nM [^3H]Ketanserin for 60 minutes at 25° C. Non-specific binding was estimated in the presence of 1 μM Mianserin. Receptor proteins were filtered and washed, the filters were then counted to determine [^3H]Ketanserin specifically bound. […] Biochemical assay results are presented as the percent inhibition of specific binding in Table 6.

Assay [4] concerns the target T4, human recombinant serotonin (5-Hydroxytryptamine) 5-HT6 receptor (Homo sapiens, UniProt P50406).
T4 construct: expressed in transfected cells; host or cells: human HeLa cells
Put plainly: Serotonin 5-HT6 radioligand binding ([3H]LSD). More on the design: Inhibition of ligand binding, Ser. 5-HT6: concentration or dose not given beside the values. Particulars: percent inhibition of specific binding. The text has this: Receptor proteins were filtered and washed, the filters were then counted to determine [3H]LSD specifically bound. […] Biochemical assay results are presented as the percent inhibition of specific binding in Table 6.

The test system of assay [5] is adrenergic receptors α1D, α2A, α2B; serotonin receptor 5-HT6; dopamine receptor D2L. The assay can be described thus: Classification of compounds (Type 1-4) from receptor binding and neurite outgrowth.

T3 sequence (P28223 whole entry): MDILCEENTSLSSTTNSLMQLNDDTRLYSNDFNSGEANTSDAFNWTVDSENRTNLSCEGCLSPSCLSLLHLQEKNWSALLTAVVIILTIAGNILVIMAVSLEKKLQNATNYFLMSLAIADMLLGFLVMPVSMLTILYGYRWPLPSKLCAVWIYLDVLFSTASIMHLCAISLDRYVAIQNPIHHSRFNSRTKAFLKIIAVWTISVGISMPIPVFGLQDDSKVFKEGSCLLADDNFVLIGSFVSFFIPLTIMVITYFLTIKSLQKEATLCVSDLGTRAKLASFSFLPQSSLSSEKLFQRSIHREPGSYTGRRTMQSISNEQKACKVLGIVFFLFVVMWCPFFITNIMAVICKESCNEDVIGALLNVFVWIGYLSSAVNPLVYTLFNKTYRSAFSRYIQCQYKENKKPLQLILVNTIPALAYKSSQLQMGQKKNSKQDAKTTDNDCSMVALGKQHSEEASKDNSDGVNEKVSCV
T4 sequence (P50406 whole entry): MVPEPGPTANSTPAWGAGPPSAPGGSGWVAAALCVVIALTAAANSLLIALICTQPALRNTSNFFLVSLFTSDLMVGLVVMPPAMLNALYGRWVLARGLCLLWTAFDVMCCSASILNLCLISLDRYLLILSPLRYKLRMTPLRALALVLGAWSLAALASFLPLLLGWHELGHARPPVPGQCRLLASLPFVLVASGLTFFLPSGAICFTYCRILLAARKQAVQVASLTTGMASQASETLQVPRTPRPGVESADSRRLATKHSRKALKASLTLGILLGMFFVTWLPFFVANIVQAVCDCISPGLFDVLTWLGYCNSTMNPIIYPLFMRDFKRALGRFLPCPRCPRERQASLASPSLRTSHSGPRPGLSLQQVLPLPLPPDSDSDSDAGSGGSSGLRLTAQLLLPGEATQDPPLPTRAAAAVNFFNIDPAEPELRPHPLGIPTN

In the case of `CN1CCc2c(c3cc(Cl)ccc3n2CCc2ccc(C(F)(F)F)nc2)C1` [Compound 250], the “Inhibition of ligand binding, Adren. alpha2A” value in assay [1] came out at 91%. Further, the “Inhibition of ligand binding, Adren. alpha2B” value in assay [2] was found to be 108%. Besides, in assay [3], the “Inhibition of ligand binding, Ser. 5-HT2A” value stood at 101%. The “Inhibition of ligand binding, Ser. 5-HT6” value in assay [4] was 84%. The “compound type (classification by receptor binding profile and neurite outgrowth)” value in assay [5] is given as “Type one”.

`Cc1ccc2c(c1)c1c(n2CCc2ccc(C)nc2)CCN(C)C1` [Dimebon, dimebon, reference compound]: the “Inhibition of ligand binding, Adren. alpha2A” value in assay [1] turned out to be 91%. Besides, the “Inhibition of ligand binding, Adren. alpha2B” value in assay [2] turned out to be 112%. In addition, the “Inhibition of ligand binding, Ser. 5-HT2A” value in assay [3] is 82%. In addition, the “Inhibition of ligand binding, Ser. 5-HT6” value in assay [4] was found to be 95%.
